Entries after “also recorded” stand apart in the source; their conditions may differ.
Experiments:
[1] = singlet oxygen efficiency test, reference rose bengal; type: physicochemical
[2] = reactive oxygen measurement with singlet oxygen and superoxide radical scavengers; type: physicochemical; settings: FIG. 6(a), 6(b)
Text: FIGS. 7(a)-7(d) show efficiency curves of measuring singlet oxygen of HB-1c and HC-1c. From the comparison with a reference rose bengal RB, it can be seen that the singlet oxygen efficiencies of HB-1c and HC-1c are respectively 0.40 and 0.38.

[3] = absorption spectrum (maximum absorption wavelength, molar extinction coefficient); type: physicochemical
[4] = water solubility in normal saline; type: physicochemical; settings: per milliliter of normal saline
Procedure: Most of photosensitizer molecules disclosed in this patent contain a large number of hydrophilic groups, such as a polyethylene glycol chain, a quaternary ammonium salt, a carboxyl group, and a sulfonic acid group, etc., making the photosensitizer molecules have very high water solubility in a physiological condition; and experiments indicate that each milliliter of normal saline or glucose injection can dissolve more than 5 mg of such the photosensitizer molecules, presenting excellent water solubility. Therefore, the photosensitive drug can be well transported in blood vessels during intravenous injection, without causing a vascular blockage. HB-1c-C2-N+ prepared in example 4 contains two quaternary ammonium salts, and each milliliter of normal saline can dissolve more than 20 mg of photosensitizer molecules; HC-1c-PEG6 prepared in example 6 contains two 6-PEG chains, and each milliliter of normal saline can dissolve more than 20 mg of photosensitizer molecules; HB-8c prepared in example 19 contains two carboxyl groups, and each milliliter of normal saline can dissolve more than 10 mg of photosensitizer molecules; HB-13c prepared in example 35 contains two carboxyl groups, and each milliliter of normal saline can dissolve more than 10 mg of photosensitizer molecules; and HB-13c-PEG8 prepared in example 37 contains two 8-PEG chains, and each milliliter of normal saline can dissolve more than 20 mg of photosensitizer molecules. These photosensitizer molecules all present excellent water solubility.

[5] = pH stability of absorption spectrum; type: physicochemical; settings: pH range of 6.2-8.0, FIG. 8
Text: Therefore, the hypocrellin derivative prepared in the present invention has a better pH stability than the commercial hematoporphyrin HpD in the pH range of 6.2-8.0.

[6] = test system: Hela cells; test: dark cytotoxicity experiment (MTT); settings: dark
Procedure: Dark cytotoxicity experiment: cultured Hela cells were digested with 0.25% trypsin and pipetted to prepare a single-cell suspension, the number of cells was adjusted to about 2×10^4 per milliliter, and 200 uL of the suspension was seeded in a well of a 96-well culture plate, which is placed in a 37° C. incubator containing 5% CO2 for cultivation. […] A cellular survival rate was measured by means of the MTT method. 20 uL of MTT was added to each well, wherein the MTT is MTT prepared with PBS and having a concentration of 5 mg/ml. The culture plate was placed in the 37° C. incubator containing 5% CO2 for further cultivation for 4 hours, after which the cultivation was terminated. A supernatant in the well was extracted and discarded carefully. Then, 150 uL of dimethyl sulfoxide was added to each well, and the culture plate was shaken by using a micro shaker for 10 minutes to fully dissolve a purple crystal substance. A wavelength of 570 nm was selected to measure an optical density value (i.e., OD value) of each well on a microplate reader, and the cellular survival rate was calculated in accordance with the following formula: cellular survival rate=OD value of an experimental group/OD value of a blank group×100%.

[7] = test system: Hela cells; test: photo-cytotoxicity experiment (MTT, 635 nm laser); type: cell-based; settings: 140 nM, 635 nm light, FIG. 13(b)
Procedure: Photo-cytotoxicity experiment on cell: cultured Hela cells were digested and pipetted with 0.25% trypsin and to prepare a single-cell suspension, the number of cells was adjusted to about 2×10^4 per milliliter, and 200 uL of the suspension was seeded in a well of a 96-well culture plate, which is placed in a 37° C. incubator containing 5% CO2 for cultivation. After the cells adhere to the wall, a supernatant culture solution was discarded, and photosensitizers of different concentrations, that is, the hematoporphyrin derivative HpD, the hypocrellin B HB, or HB-1c-PEG6 synthesized in example 3, were added in a strictly lucifugous condition in accordance with experimental designs, and the culture plate was placed in the 37° C. incubator containing 5% CO2 for further cultivation and incubation for 1 hour. Then, a semiconductor laser with a wavelength of 635 nm was used for irradiation, a power density was adjusted to 20 mW/cm^2, light beams were evenly and vertically applied onto the 96-well culture plate, and an irradiation time was 1000 S. In addition, each 96-well culture plate is provided with a blank group, and 6 holes were provided for in each condition. After irradiation, the culture plate was placed in the 37° C. incubator containing 5% CO2 for further cultivation and incubation for 24 hours, and then a cellular survival rate was measured. The cellular survival rate was measured by means of the MTT method. 20 uL of MTT was added to each well, wherein the MTT is MTT prepared with PBS and having a concentration of 5 mg/ml. The culture plate was placed in the 37° C. incubator containing 5% CO2 for further cultivation for 4 hours, after which the cultivation was terminated. A supernatant in the well was extracted and discarded carefully. Then, 150 uL of dimethyl sulfoxide (DMSO) was added to each well, and the culture plate was shaken by using a micro shaker for 10 minutes to fully dissolve a purple crystal substance. A wavelength of 570 nm was selected to measure an optical density value (i.e., OD value) of each well on a microplate reader, and the cellular survival rate was calculated in accordance with the following formula: cellular survival rate=OD value of an experimental group/OD value of a blank group×100%.

[8] = test system: singlet oxygen in a cell; test: detection of singlet oxygen in a cell with fluorescence probe DCFH-DA; type: cell-based; settings: co-incubation with DCFH-DA, irradiation time to 60 s, FIG. 11
Text: DCFH-DA is used to detect singlet oxygen in a cell.

SMILES	singlet oxygen efficiencies ([1]; comparison with reference rose bengal RB, FIG. 7)	photosensitive reactive species produced [2]	maximum absorption wavelength [3]	molar extinction coefficient [3]	singlet oxygen yield [1]	amount dissolved by each milliliter of normal saline [4]	pH stability, change in absorption spectrum [5]	cytotoxicity when not exposed to light [6]	Hela cells killed [7]	singlet oxygen in the cell (DCFH-DA green fluorescence) [8]
COc1c2c3c4c(c(NCCOCCO)c(=O)c5c(NCCOCCO)cc(OC)c(c6c(OC)cc(O)c(c1=O)c63)c54)C=C(C)C2C(C)=O (stereo not shown) [HB-1c]	0.40	primarily producing singlet oxygen								
COCCOCCOCCOCCOCCOCCOCCC(=O)OCCOCCNc1c2c3c4c(c(OC)c(=O)c5c(O)cc(OC)c(c6c(OC)cc(NCCOCCOC(=O)CCOCCOCCOCCOCCOCCOCCOC)c(c1=O)c63)c54)CC(C)=C2 [HC-1c-PEG6]			628 nm	33,500 M^−1cm^−1	34%	more than 20 mg	good pH stability; also recorded: no obvious change	almost no cytotoxicity	more than 90%	green fluorescence intensity is gradually increased

Reference: patent US11439707B2, “Hypocrellin derivative substituted both in a peri-position and in 2-position by amino, preparation method, and application thereof” (priority 2017, dated 2022)
